{
  "source": "ChEMBL document CHEMBL2074028",
  "about": "“Direct interaction between a quinoline derivative, MS-209, and multidrug resistance protein (MRP) in human gastric cancer cells” (Biochem Biophys Res Commun, 1999)",
  "target": "Multidrug resistance-associated protein 1 (Homo sapiens, UniProt P33527)",
  "sequence (P33527 whole entry)": "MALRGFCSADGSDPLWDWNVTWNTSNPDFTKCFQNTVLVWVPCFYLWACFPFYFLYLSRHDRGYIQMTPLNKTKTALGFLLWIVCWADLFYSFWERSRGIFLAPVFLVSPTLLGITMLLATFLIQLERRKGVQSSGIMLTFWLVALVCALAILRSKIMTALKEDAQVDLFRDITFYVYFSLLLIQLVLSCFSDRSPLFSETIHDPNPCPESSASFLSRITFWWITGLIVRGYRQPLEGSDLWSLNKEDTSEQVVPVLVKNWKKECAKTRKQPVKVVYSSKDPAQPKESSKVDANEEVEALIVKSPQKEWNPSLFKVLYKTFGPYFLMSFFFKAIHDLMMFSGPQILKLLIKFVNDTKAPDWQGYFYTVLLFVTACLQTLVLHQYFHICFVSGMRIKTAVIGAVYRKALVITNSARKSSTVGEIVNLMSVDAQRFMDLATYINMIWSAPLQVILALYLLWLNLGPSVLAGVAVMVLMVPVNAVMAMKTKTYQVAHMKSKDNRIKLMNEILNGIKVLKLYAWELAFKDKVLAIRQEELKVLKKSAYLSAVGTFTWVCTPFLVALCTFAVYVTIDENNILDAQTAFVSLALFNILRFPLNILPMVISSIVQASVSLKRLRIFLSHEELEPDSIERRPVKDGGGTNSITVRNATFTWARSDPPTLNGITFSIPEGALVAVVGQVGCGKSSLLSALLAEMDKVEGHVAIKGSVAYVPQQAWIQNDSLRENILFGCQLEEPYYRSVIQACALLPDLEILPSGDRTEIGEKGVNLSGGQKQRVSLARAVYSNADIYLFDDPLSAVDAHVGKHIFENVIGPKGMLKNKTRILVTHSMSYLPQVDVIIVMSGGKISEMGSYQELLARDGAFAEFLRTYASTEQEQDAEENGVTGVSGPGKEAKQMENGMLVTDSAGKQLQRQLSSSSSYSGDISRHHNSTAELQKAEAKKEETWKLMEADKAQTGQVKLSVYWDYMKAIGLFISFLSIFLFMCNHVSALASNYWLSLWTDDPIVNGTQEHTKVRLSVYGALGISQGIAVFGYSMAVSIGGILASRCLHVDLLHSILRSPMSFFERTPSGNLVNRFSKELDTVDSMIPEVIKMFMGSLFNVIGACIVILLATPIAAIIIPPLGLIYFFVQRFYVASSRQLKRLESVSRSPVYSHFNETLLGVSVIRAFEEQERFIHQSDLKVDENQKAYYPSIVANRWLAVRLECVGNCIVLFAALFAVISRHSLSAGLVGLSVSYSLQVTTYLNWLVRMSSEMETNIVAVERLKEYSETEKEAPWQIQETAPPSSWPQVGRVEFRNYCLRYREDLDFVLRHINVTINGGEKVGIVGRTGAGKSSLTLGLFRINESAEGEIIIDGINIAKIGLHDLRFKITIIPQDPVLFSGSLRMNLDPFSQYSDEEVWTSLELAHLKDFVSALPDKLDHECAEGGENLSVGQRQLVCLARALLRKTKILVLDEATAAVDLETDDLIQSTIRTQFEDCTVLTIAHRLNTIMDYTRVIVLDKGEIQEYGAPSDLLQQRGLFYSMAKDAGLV",
  "test": "TP_TRANSPORTER: inhibition of LTC4 uptake (LTC4: 0.00134 uM, MS-209: 3 uM) in membrane vesicles from MKN45R0.8 cells",
  "assay_type": "functional, cell membranes, Membrane vesicle",
  "set-up": "scale not given: the % may be the effect or the level left",
  "details": "mkn45r0.8, 3 µM",
  "data": [
    {"compound": "O=C(C(c1ccccc1)c1ccccc1)N1CCN(C[C@@H](O)COc2cccc3ncccc23)CC1", "values": [
      {"measurement": "Activity", "result": 20, "unit": "%"}
    ]}
  ]
}
